One compound from patent US20110288314A1, “PHLOROGLUCINOL DERIVATIVES FROM ECKLONIA CAVA HAVING ANTI-HIV-1 INHIBITORY ACTIVITY” (priority 2008, published 2011) can be followed below.

One series relates to CEM-SS or H9 cells. The series can be described thus: Cell viability (MTT) assay. As to conditions: up to 500 μM, 72 h. The class given is cell-based, human. As for the experimental part: H9 and H9/HIV-1IIIB cell lines were obtained through American Type of Culture Collection (Manassas, Va., USA). CEM-SS cell line from Dr. P. Nara and C8166 cell line from Dr. G. Farrar were provided by the EU Programme EVA Centre for AIDS Reagents, NIBSC, UK. CEM-SS, C8166, H9 and H9/HIV-1IIIB cell lines were grown in RPMI 1640 medium supplemented with 10% FBS, 100 μg of streptomycin per ml and 100 U of penicillin per ml. HIV-1IIIB virus stock was obtained from the culture supernatant of chronically infected H9/HIV-1IIIB cells. Cell-free virus was harvested from the supernatants by centrifugation and filtration through 0.22 μM filter. The virus stocks were stored as small aliquots at […] until use.
The cytotoxic concentrations of 6,6′-bieckol were determined by MTT assay, a method based on the reduction of 3-(4,5-dimethylthiazol-2-yl)-2,5-diphenyltetrazolium bromide (MTT). Four hundreds of microliters of medium containing CEM-SS or H9 cells were cultured into a 48-well plate at a density of 10^5 cells/ml. The plate was incubated overnight and treated with 100 μl of RPMI 1640 medium with/without 6,6′-bieckol. After 72 h of incubation, 100 μl of 500 μg/ml MTT was added to each well and the plate was incubated for another 4 h at 37° C. […] Optical density was measured at 540 nm with a microplate reader. […]

Series [1] has as its system HIV-1IIIB. The experiment in a line: HIV-1 p24 antigen capture ELISA in H9 cells. Conditions: ELISA (FIG. 1D). In kind it is cell-based. On the set-up: dose or concentration left out as unconfirmed. As for the experimental part:
H9 cells (3×10^6 cells/ml) were incubated in the presence or absence of HIV-1IIIB for 1 h at 37° C. Cells were washed to remove unbound viruses and resuspended at 3×10^5 cells/ml in culture medium. Aliquots of 1 ml were placed in a 24-well culture plate containing an equal volume of medium with/without 6,6′-bieckol.
AZT was treated as positive control. In order to determine the amount of virus released to the medium, HIV-1 p24 antigen capture ELISA was carried out with a commercial kit (Perkin-Elmer Life Sciences, Boston, Mass.) according to the manufacturer's instructions.
(In an ELISA, binding on a coated surface is turned into a signal by an enzyme label.)

Series [2] has as its system HIV-1IIIB. The experiment in a line: Western blot analysis of p24 / gag proteins in HIV-1IIIB infected H9 cells. The class given is cell-based. As for the experimental part:
1×10^6 cells/ml H9 cells were cultured in cell culture plates. Following sample treatment, plates were incubated for 2 h and infected with HIV-1IIIB at 200 CCID50. After 96 h of incubation at 37° C., cells were pelleted at 1000 rpm for 10 min and supernatant was harvested. The cells were washed 3 times with PBS and lysed with 500 μl of lysis buffer containing 50 mM Tris-HCl (pH 7.5), 0.4% Nonidet P-40, 120 mM NaCl, 1.5 mM MgCl2, 2 mM phenylmethylsulfonyl fluoride, 80 μg/ml leupeptin, 3 mM NaF, and 1 mM DTT. Hundred micrograms of total protein was used for immunoblot analysis.
Culture supernatant containing virus was filtered through 0.22 μm filter, mixed with 30% polyethylene glycol (PEG) (50% v/v) with 0.4 M NaCl, and virus particles were pelleted at 15000 rpm for 45 min. The viral pellets were lysed, resuspended in SDS sample buffer and equal volume of viral lysates (20 μl) was loaded onto SDS gel. The proteins were subjected to denaturating SDSAGE in 25 mM Tris, 192 mM glycine, 0.1% SDS with a 4% stacking, and 10% separating gel. Separated proteins were transferred onto a nitrocellulose membrane, blocked in Tris buffered saline containing 0.1% (v/v) Tween 20 (TBS-T) and 5% skim milk powder. The membrane was probed with mouse anti-p24 monoclonal antibody (1:500, SantaCruz) and horseradish peroxidase (HRP)-conjugated anti-mouse IgG secondary antibody (1:5000, SantaCruz). […]
(In western blotting, separated proteins are transferred to a membrane and probed.)

The subject of series [3] is HIV-1IIIB. The experiment in a line: Co-cultivation assay (C8166 cells with H9 cells chronically infected with HIV-1IIIB). The class given is cell-based. Conditions: highest concentration treated; C8166 + H9/HIV-1IIIB, 72 h. As for the experimental part: 3×10^4 C8166 cells were pre-treated with various concentrations of 6,6′-bieckol for 2 h and co-cultured with 3×10^3 H9 cells chronically infected with HIV-1IIIB at 37° C. in a humidified atmosphere of 5% CO2. After 72 h of incubation, the number of syncytia formed was counted using a microscope.

Series [4] has as its target T1, HIV-1 reverse transcriptase (Human immunodeficiency virus type 1 group M subtype B, UniProt P04585).
T1 construct: HIV-1 reverse transcriptase in the viral lysate; endogenous in cells; host or cells: lysate of virus particles produced by infected cell culture (viral lysate)
The series can be described thus: Reverse transcriptase activity assay (fluorescence RT kit, viral lysate). The class given is biochemical. On the set-up: HIV-1 RT enzyme activity inhibited: dose or concentration left out as unconfirmed. As to conditions: RT from cell culture supernatant. As for the experimental part: The activity of HIV-1 reverse transcriptase in the viral lysate was evaluated using a fluorescence RT assay kit (InvitroGen) according to the manufacturer's protocol. Briefly, 20 μl of reaction mixture containing a template/primer hybrid, poly(A)/d(T)16, and dTTP as a triphosphate substrate was added to the wells of amicrotiter plate and mixed with 5 μl of viral lysate containing various concentrations of 6,6′-bieckol. After incubation at 37° C. for 1 h, the reaction was stopped by the addition of 2 μl of 200 mM EDTA to each reaction. Fluorescence intensity was measured at 480 nm (excitation) and 520 nm (emission) with a GENiosmicroplate reader (Tecan Austria GmbH, Austria) after the addition of 173 μl of fluorescent PicoGreenreagent, which selectively binds to dsDNA or DNA-RNA heteroduplexes over single-stranded nucleic acids or free nucleotides.

Usually inhibition stands for the percentage by which the read-out fell short of the control. In the case of `Oc1cc(O)cc(Oc2c(O)cc(O)c3c2Oc2c(O)cc(O)c(-c4c(O)cc(O)c5c4Oc4c(O)cc(O)c(Oc6cc(O)cc(O)c6)c4O5)c2O3)c1` [6,6′-bieckol], in the series on CEM-SS or H9 cells, the cytotoxicity result is reported as “no cytotoxicity”. The “inhibition of production of p24 antigen” value with HIV-1IIIB [1] is given as “more than 90%”. Further, the “protease inhibition judged from p55 gag related protein bands” value in the series with HIV-1IIIB [2] (Western blot) is given as “did not inhibit the protease”. For the same compound, the “inhibition of p24 antigen production versus AZT” value in the series with HIV-1IIIB [2] (of 6,6′-bieckol vs AZT 5 μM (FIG. 2C)) is “comparable to that of AZT”. Besides, the “inhibition of syncytia formation in co-cultivation assay” value in the series with HIV-1IIIB [3] is reported as “around 80%”. The inhibition at 1 µM in series [4] (1 μM, read-out: HIV-1 RT enzyme inhibition) came out at 50.5%. Also, in series [4], the “HIV-1 RT enzyme activity inhibited” value is listed as 96.33%.
